The target of assay [1] is T1, human PPARdelta (Homo sapiens, UniProt Q03181).
T1 construct: human PPARdelta receptor (amino acids S139-Y441); expressed in transfected cells
T1 sequence (Q03181 139-441): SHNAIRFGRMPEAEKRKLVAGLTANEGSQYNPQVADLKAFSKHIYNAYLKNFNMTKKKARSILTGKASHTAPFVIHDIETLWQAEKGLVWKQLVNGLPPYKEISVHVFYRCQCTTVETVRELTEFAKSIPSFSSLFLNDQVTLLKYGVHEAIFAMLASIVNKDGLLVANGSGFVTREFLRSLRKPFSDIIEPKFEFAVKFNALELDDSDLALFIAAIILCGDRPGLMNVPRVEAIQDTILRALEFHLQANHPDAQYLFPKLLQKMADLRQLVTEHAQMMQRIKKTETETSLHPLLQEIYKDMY
As to the kind of experiment: Cellular PPARdelta assay (luciferase reporter, stably transfected HEK cell line). The assay is classed as cell-based. Conditions: PPARdelta reporter cell line (HEK, GR-GAL4-humanPPARdelta-LBD). The protocol:
Determination of EC50 Values of PPAR Agonists in the Cellular PPARdelta Assay
The potency of substances which bind to human PPARdelta and activate it in an agonistic manner is analyzed using a stably transfected HEK cell line (HEK=human embryo kidney) which is referred to here as PPARdelta reporter cell line. In analogy to the assay described for PPARalpha, the PPARdelta reporter cell line also contains two genetic elements, a luciferase reporter element (pdeltaM-GAL4-Luc-Zeo) and a PPARdelta fusion protein (GR-GAL4-humanPPARdelta-LBD) which mediates expression of the luciferase reporter element depending on a PPARdelta ligand. The stably and constitutively expressed fusion protein GR-GAL4-humanPPARdelta-LBD binds in the cell nucleus of the PPARdelta reporter cell line via the GAL4 protein portion to the GAL4 DNA binding motifs 5′-upstream of the luciferase reporter element which is stably integrated in the genome of the cell line. There is only little expression of the luciferase reporter gene in the absence of a PPARdelta ligand if fatty acid-depleted fetal calf serum (cs-FCS) is used in the assay. PPARdelta ligands bind and activate the PPARdelta fusion protein and thereby stimulate expression of the luciferase reporter gene. The luciferase which is formed can be detected by means of chemiluminescence via an appropriate substrate.
The production of the stable PPARdelta reporter cell line is based on a stable HEK-cell clone which was stably transfected with a luciferase reporter element. This step was already described above in the section “construction of the PPARalpha reporter cell line”. In a second step, the PPARdelta fusion protein (GR-GAL4-humanPPARdelta-LBD was stably introduced into this cell clone. For this purpose, the cDNA coding for the N-terminal 76 amino acids of the glucocorticoid receptor (Accession #P04150) was linked to the cDNA section coding for amino acids 1-147 of the yeast transcription factor GAL4 (Accession #P04386). The cDNA of the ligand-binding domain of the human PPARdelta receptor (amino acids S139-Y441; Accession #L07592) was cloned in at the 3′-end of this GR-GAL4 construct. The fusion construct prepared in this way (GR-GAL4-humanPPARdelta-LBD) was recloned into the plasmid pcDNA3 (Invitrogen) in order to enable constitutive expression by the cytomegalovirus promoter. This plasmid was linearized with a restriction endonuclease and stably transfected into the previously described cell clone containing the luciferase reporter element. […]
The activity of PPARdelta agonists is determined in a 3-day assay in exact analogy to the procedure already described for the PPARalpha reporter cell line except that the PPARdelta reporter cell line and a specific PPARdelta agonist was used as a standard to control test efficacy.

The target in assay [2] is T2, human PPARalpha (Homo sapiens, UniProt Q07869).
T2 construct: human PPARalpha receptor (amino acids S167-Y468); expressed in transfected cells
T2 sequence (Q07869 167-468): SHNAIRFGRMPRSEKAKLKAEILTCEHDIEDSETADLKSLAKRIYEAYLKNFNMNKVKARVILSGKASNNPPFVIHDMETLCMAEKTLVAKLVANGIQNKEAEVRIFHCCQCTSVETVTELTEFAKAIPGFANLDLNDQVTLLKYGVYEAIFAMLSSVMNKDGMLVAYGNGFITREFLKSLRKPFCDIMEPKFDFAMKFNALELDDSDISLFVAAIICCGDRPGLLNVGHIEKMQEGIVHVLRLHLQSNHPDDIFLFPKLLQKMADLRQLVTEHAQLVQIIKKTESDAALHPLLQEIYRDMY
The experiment in a line: Cellular PPARalpha assay (luciferase reporter, stably transfected HEK cell line). The assay is classed as cell-based. The note with it: PPARalpha reporter cell line (HEK, GR-GAL4-humanPPARalpha-LBD). The protocol: Determination of EC50 Values of PPAR Agonists in the Cellular PPARalpha Assay
The potency of substances which bind to human PPARalpha and activate it in an agonistic manner is analyzed using a stably transfected HEK cell line (HEK=human embryo kidney) which is referred to here as PPARalpha reporter cell line. It contains two genetic elements, a luciferase reporter element (pdeltaM-GAL4-Luc-Zeo) and a PPARalpha fusion protein (GR-GAL4-humanPPARalpha-LBD) which mediates expression of the luciferase reporter element depending on a PPARalpha ligand. The stably and constitutively expressed fusion protein GR-GAL4-humanPPARalpha-LBD binds in the cell nucleus of the PPARalpha reporter cell line via the GAL4 protein portion to the GAL4 DNA binding motifs 5′-upstream of the luciferase reporter element which is stably integrated in the genome of the cell line. There is only weak expression of the luciferase reporter gene in the absence of a PPARalpha ligand if fatty acid-depleted fetal calf serum (cs-FCS) is used in the assay. PPARalpha ligands bind and activate the PPARalpha fusion protein and thereby stimulate the expression of the luciferase reporter gene. The luciferase which is formed can be detected by means of chemiluminescence via an appropriate substrate. […]
The activity of PPARalpha agonists is determined in a 3-day assay which is described below: […]
For orientation: Reporter assays use an easily measured gene product as a stand-in for the process of interest.

The structures appear in SMILES notation.

Among the data in patent US8329725B2, “Annelated pyrrolidin sulfonamides with oxadiazolone headgroup, processes for their preparation and their use as pharmaceuticals” (Sanofi, priority 2008, dated 2012) are EC50 values, retold here.

In turn, `COc1nc(C)ccc1-c1ccc2c(c1)CCN2S(=O)(=O)c1ccc(-c2noc(=O)[nH]2)cc1` [Example 5, 3-{4-[5-(2-Methoxy-6-methyl-pyridin-3-yl)-2,3-dihydro-indole-1-sulfonyl]-phenyl}-4H-[1,2,4]oxadiazol-5-one] returned an EC50 in assay [1] of 3.55 µM. The same measure, in the same setting: the value for `COc1ccc(-c2ccc3c(c2)CCN3S(=O)(=O)c2ccc(-c3noc(=O)[nH]3)cc2)nc1` [Example 8, 3-{4-[5-(5-Methoxy-pyridin-2-yl)-2,3-dihydro-indole-1-sulfonyl]-phenyl}-4H-[1,2,4]oxadiazol-5-one] was 1.3 µM.

On to `CC1(C)CN(S(=O)(=O)c2ccc(-c3noc(=O)[nH]3)c(Cl)c2)c2ccc(-c3ccc(C(F)(F)F)cc3)nc21` [Example 16, 3-{2-Chloro-4-[3,3-dimethyl-5-(4-trifluoromethyl-phenyl)-2,3-dihydro-pyrrolo[3,2-b]pyridine-1-sulfonyl]-phenyl}-4H-[1,2,4]oxadiazol-5-one], for which the EC50 stood at 0.8 µM in assay [2] and 0.0025 µM in assay [1]. In the same order, the values of `O=c1[nH]c(-c2ccc(S(=O)(=O)N3CCc4cc(-c5ccc(C(F)(F)F)cc5)cnc43)cc2Cl)no1` [Example 14, 3-{2-Chloro-4-[5-(4-trifluoromethyl-phenyl)-2,3-dihydro-pyrrolo[2,3-b]pyridine-1-sulfonyl]-phenyl}-4H-[1,2,4]oxadiazol-5-one] are 1.89 µM and 0.034 µM.

In general, EC50 refers to the concentration that produces a half-maximal response. Higher therefore signals weaker potency.
